The values that follow come from paper PMC12384225, “Piezo1 Channel Activators Yoda1 and Yoda2 in the Context of Red Blood Cells” (Biomolecules, 2025).

Assay [1] deals with T1, Piezo1 channel (Homo sapiens, UniProt Q92508).
T1 construct: endogenous in cells; host or cells: human red blood cells (RBCs) from donor blood
Briefly: Automated whole-cell patch clamp (SyncroPatch 384) of Piezo1-mediated currents in RBCs. Type of assay: cell-based. The note with it: for responding cells out of total valid cells / responding cells out of total valid cells (any concentration) / concentration at which the response plateaus: +80 mV; for responding cells out of total valid cells (any concentration): current > baseline + 3σ at any concentration, N = 3; for EC50: human RBCs, responders only, current at +80 mV normalised to baseline, cumulative concentrations, Hill fit, room temperature; for concentration at which the response plateaus: normalised concentration-response curves. On the procedure:
Whole-cell patch clamp recordings were performed using the SyncroPatch 384 (Nanion Technologies, Munich, Germany) as previously described. Experiments were conducted at room temperature using NPC-384 single-hole microchips with resistances ranging from 6 to 10 MΩ. Recording solutions contained (in mM) 110 KF, 10 KCl, 10 NaCl, 10 EGTA, and 10 HEPES, pH 7.2 (KOH) (internal); and 140 NaCl, 4 KCl, 2 CaCl2, 1 MgCl2, 5 D-glucose monohydrate, and 10 HEPES, pH 7.4 (NaOH) (external). Data acquisition was conducted using PatchControl384 v3.2.2 (Nanion Technologies, Munich, Germany), sampled at 10 kHz.
Piezo1-mediated currents were elicited using a voltage ramp protocol ranging from −100 mV to +80 mV over 450 ms, applied every 10 s, with a holding potential set at −30 mV. After establishing a stable baseline current in the external solution, cells were exposed to increasing concentrations of either Yoda1 or Yoda2 (Tocris Bioscience, Bristol, UK) in a cumulative manner: 41 nM, 144 nM, 442 nM, 1.33 μM, 4 μM, and 8 μM. To block channel activity, 30 μM GdCl3 (Sigma-Aldrich, Merck KGaA, Taufkirchen, Germany, a non-selective ion channel inhibitor, was subsequently applied.
RBCs were classified as responders if the mean current amplitude in the presence of the compound exceeded the mean current at baseline conditions by more than three times the standard deviation of the baseline (3σ). For EC50 determination, current amplitudes at each concentration were normalised to the baseline current, and dose–response curves were fitted using the Hill equation.
A general note: The patch-clamp technique gives a direct electrical read-out from membranes.

Assay [2] deals with free Ca^2+ in healthy red blood cells (RBCs). Briefly: Intracellular Ca2+ by Fluo-4 flow cytometry in RBCs. Type of assay: cell-based, human. The conditions noted are these: for EC50: maximum average Fluo-4 intensity of all RBCs during recording, Hill fit, flow cytometry, read-out: EC50 (Ca^2+ Measurements). On the procedure: Experiments for the intracellular Ca^2+ detection of RBCs were performed in Tyrode solution containing (in mM) 130 NaCl, 5 KCl, 5 glucose, 10 HEPES, 1 MgCl2, and 1.5 CaCl2. The pH was adjusted to 7.40 with NaOH. All salts were of analytical grade. The cells were loaded with Fluo-4 AM (Molecular Probes, Eugene, OR, USA) at a concentration of 5 μM for 1 hour at 37 °C. Then, the cells were washed three times with Tyrode solution.
Flow cytometry measurements were performed on LSRFortessa (Becton Dickinson, Franklin Lakes, NJ, USA). Washed RBCs from 50 μL of blood were loaded with Fluo-4 as previously described and washed again. For flow cytometry analysis, 10 μL of cell suspension was added to 700 μL of designed buffer and transferred to 5 mL round-bottom polystyrene test tubes (Corning Inc., Corning, NY, USA). For each sample, data recording started 1 minute after the cells were in the designed buffer for 10 minutes. The results were assessed using FlowJo (Becton Dickinson, Franklin Lakes, NJ, USA).
Background: A flow cytometer gives signals particle by particle.

Assay [3] deals with membrane potential of RBCs (Gárdos channel activity). The assay can be described thus: Membrane potential measurement (MBE method), hyperpolarisation by Gárdos channel activity. Type of assay: cell-based, human. The conditions noted are these: magnitude of membrane hyperpolarisation ΔVm, Hill fit. The method, then: The membrane potential of RBCs was measured using a method originally described by Macey et al., subsequently refined by Poul Bennekou, e.g., [27], and later optimised by the group of Stéphane Egée, e.g., [28]. As such, the method is referred to as the MBE method after the three scientists who most contributed to it. For each experiment, a 2 mL microcentrifuge tube was prepared with 1 mL of Ringer solution containing (in mM) 153 NaCl, 2 KCl, and 4 CaCl2. All reagents were of analytical grade and dissolved in Milli-Q water. Protonophore carbonyl cyanide m-chlorophenyl hydrazone (CCCP) was added at a final concentration of 26 µM to increase the hydrogen permeability of membranes. The tube was placed in a 36 °C water bath, and a magnetic stir bar was added to ensure continuous mixing. A calibrated pH electrode (InLab Expert Pro pH electrode, Mettler-Toledo GmbH, Greifensee, Switzerland) was immersed in the solution to monitor pH changes in real time, with data acquisition and recording performed via software on a connected computer. […] The system was monitored for an additional 5 minutes to observe the effects of the compound on the RBCs. […]
The membrane potential (Vm) was calculated from the recorded pH data using the following equation:Vm [mV] = −61.5 × (pHval − pHlys), where pHval is the pH value measured at a specific time point, and pHlys is the final pH value obtained after cell lysis.

For assay [4] the test system is unchanged. Set-up: method as in PMID 37492641. The note with it: RBCs pretreated with the inhibitor; cited from earlier work.
The subject of assay [5] is free Ca^2+ in healthy red blood cells (RBCs). On the set-up: method as in PMID 29259557, PMID 33208899. The note with it: cited from earlier work.

T1 sequence (Q92508 whole entry): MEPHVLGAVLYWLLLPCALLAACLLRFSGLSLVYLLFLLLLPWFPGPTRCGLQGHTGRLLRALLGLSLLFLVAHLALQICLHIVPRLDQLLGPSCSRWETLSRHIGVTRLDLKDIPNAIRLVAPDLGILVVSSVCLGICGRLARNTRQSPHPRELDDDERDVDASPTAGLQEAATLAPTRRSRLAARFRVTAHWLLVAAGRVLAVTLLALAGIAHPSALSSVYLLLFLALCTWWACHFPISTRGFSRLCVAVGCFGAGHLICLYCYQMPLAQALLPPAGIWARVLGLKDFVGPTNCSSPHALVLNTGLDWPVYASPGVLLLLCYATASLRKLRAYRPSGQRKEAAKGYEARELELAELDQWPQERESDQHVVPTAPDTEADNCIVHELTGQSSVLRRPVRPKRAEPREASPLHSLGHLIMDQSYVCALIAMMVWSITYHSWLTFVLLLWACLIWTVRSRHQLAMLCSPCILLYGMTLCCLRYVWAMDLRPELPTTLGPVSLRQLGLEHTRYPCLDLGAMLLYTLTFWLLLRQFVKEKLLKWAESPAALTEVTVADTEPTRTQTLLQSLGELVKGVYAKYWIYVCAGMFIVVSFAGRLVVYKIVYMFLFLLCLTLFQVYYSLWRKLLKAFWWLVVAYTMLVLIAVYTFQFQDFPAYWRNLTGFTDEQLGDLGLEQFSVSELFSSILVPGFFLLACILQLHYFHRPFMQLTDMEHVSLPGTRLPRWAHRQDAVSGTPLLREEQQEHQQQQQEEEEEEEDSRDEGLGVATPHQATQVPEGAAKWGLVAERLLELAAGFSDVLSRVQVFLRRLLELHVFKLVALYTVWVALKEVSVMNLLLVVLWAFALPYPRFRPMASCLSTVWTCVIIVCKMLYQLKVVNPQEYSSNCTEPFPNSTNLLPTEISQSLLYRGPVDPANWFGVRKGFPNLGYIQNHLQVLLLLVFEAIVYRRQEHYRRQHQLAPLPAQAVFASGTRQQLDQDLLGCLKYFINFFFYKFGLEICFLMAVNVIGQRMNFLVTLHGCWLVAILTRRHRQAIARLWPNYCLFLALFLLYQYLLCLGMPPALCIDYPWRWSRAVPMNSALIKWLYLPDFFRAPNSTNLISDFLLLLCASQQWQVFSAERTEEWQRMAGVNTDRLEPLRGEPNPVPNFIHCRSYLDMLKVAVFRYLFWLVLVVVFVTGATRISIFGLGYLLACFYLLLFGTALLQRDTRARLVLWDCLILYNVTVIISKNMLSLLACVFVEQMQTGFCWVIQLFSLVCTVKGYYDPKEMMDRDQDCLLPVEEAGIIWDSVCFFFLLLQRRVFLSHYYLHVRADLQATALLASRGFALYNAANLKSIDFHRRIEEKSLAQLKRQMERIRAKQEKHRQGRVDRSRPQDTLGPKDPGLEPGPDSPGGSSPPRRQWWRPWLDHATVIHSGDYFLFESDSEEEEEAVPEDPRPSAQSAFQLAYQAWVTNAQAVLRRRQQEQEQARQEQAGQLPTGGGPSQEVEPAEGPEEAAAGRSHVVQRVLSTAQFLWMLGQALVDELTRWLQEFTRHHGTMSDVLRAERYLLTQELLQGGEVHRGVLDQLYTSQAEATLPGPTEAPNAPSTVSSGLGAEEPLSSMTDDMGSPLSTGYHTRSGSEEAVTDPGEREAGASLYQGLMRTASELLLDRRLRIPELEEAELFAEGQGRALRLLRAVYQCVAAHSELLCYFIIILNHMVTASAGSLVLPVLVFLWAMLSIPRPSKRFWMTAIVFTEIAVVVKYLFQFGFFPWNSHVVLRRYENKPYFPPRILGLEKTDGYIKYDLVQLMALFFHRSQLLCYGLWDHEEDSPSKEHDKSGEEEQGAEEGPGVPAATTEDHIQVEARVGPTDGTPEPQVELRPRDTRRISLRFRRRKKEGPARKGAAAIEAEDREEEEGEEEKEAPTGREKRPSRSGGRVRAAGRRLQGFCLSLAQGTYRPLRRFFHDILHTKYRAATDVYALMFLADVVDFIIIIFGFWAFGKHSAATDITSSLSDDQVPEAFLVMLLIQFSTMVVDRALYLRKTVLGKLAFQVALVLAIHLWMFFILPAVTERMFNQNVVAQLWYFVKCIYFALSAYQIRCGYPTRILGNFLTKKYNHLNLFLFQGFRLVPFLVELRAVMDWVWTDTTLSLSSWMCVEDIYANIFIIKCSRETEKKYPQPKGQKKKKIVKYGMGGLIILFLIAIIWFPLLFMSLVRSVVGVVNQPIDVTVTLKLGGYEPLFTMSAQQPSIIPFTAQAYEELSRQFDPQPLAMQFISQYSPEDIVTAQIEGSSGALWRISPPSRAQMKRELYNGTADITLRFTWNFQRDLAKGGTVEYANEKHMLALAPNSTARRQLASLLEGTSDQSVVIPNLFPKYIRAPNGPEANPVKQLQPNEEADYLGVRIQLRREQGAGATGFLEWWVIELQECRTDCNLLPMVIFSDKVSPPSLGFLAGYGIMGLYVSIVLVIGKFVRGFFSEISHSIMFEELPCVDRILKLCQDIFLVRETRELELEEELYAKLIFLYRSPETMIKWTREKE

`[Cl][Gd]([Cl])[Cl]` [GdCl3]: the “block of Piezo1 channel activity” value in assay [1] (30 μM, applied after cumulative Yoda1 or Yoda2) is recorded as “block Piezo1 channel activity completely”.
With `Clc1cccc(Cl)c1CSc1nnc(-c2cnccn2)s1` [Yoda1], the “responding cells out of total valid cells” value is reported as 2/172 in assay [1] (41 nM); 9/172 in assay [1] (144 nM); 16/172 in assay [1] (442 nM); 26/172 in assay [1] (1330 nM); 30/172 in assay [1] (4000 nM); 35/172 in assay [1] (8000 nM). Further, in assay [1], the “responding cells out of total valid cells (any concentration)” value is 35/172. Also, the EC50 (usually the concentration that produces a half-maximal response) is 1390 nM in assay [1], 1180 nM in assay [2] and 305 nM in assay [3]. Moreover, the “concentration at which the response plateaus” value in assay [1] is recorded as “did not plateau”. In addition, the “Fluo-4 (Ca^2+) response of RBCs” value in assay [2] (40 nM) is on record as “no obvious response”.
Consider `O=C(O)c1ccc(-c2nnc(SCc3c(Cl)cccc3Cl)s2)cc1` [Yoda2], for which the “responding cells out of total valid cells” value in assay [1] (41 nM) was 3/171; in assay [1] (144 nM), 12/171; in assay [1] (442 nM), 24/171; in assay [1] (1330 nM) it was 30/171; in assay [1] (4000 nM), 30/171; in assay [1] (8000 nM) it was 31/171. Further, the “responding cells out of total valid cells (any concentration)” value in assay [1] is 35/171. Moreover, the EC50 in assay [1] was 305 nM; in assay [2], 986 nM; in assay [3], 465 nM. Moreover, the “concentration at which the response plateaus” value in assay [1] is reported as “around 4 μM”. Further, in assay [2] (80 nM), the “Fluo-4 (Ca^2+) response of RBCs” value was “no obvious response”.
Turning to GsMTx4, the inhibition of hyperpolarisation result in assay [4] is recorded as “largely inhibited”. Besides, the “inhibition of increased Ca^2+ induced by Yoda1 or mechanical stress” value in assay [5] is “significantly inhibited”.
